Experimental findings from ChEMBL document CHEMBL2040817, “Fragment-based discovery of hydroxy-indazole-carboxamides as novel small molecule inhibitors of Hsp90” (Bioorg Med Chem Lett, 2012) are described below.

The target in test [1] is T1, Heat shock protein HSP 90-beta (Homo sapiens, UniProt P08238). Description: Displacement of [3H]17AAG from human recombinant Hsp90 after 30 mins by beta scintillation counting. In general terms: In a radioligand displacement assay an active substance lowers the binding of a labelled ligand.
T1 sequence (P08238 whole entry): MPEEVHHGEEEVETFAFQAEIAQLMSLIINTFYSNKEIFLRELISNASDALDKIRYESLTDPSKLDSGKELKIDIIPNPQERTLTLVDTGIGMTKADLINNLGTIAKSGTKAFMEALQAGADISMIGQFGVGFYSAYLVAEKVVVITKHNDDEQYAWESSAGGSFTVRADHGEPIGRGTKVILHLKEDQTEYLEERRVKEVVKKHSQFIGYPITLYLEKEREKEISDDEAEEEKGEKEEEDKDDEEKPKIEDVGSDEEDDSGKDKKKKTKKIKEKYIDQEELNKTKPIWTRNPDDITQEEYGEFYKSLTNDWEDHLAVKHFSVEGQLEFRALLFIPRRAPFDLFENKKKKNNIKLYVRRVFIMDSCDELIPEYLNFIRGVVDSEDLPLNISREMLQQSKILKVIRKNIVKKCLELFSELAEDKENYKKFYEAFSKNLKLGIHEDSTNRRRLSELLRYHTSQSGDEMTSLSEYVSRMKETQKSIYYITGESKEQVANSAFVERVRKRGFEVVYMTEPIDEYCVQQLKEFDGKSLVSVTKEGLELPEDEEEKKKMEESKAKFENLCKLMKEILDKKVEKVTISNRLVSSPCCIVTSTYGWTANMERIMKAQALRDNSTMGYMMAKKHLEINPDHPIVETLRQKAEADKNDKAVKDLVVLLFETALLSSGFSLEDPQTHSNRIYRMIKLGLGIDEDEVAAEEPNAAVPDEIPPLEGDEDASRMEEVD
The subject of another test is A2780. Description: Antiproliferative activity against human A2780 cells after 72 hrs by alamar blue assay. It is filed as functional, cell-based. Conditions: A2780, 72 h.
The test system of the next test is MCF7. Description: Antiproliferative activity against human MCF7 cells after 72 hrs by alamar blue assay. It is filed as functional, cell-based. The conditions noted are these: MCF7, 72 h.
In another test the test system is COLO 205. Kind of test: Antiproliferative activity against human COLO205 cells after 72 hrs by alamar blue assay. The class given is functional, cell-based. Conditions: COLO 205, 72 h. A general note: Resazurin is reduced to fluorescent resorufin, in cell work by metabolically active cells.
For the next test, the system named is PC-3. Kind of test: Antiproliferative activity against human PC3 cells after 72 hrs by alamar blue assay. It is filed as functional, cell-based. Conditions: PC-3, 72 h.
The target in test [2] is T1, Heat shock protein HSP 90-beta. Kind of test: Inhibition of Hsp90 in human A2780 cells assessed as Hsp70 upregulation after 24 hrs by immunostaining method. The class given is cell-based.

The IC50 is the concentration needed to halve the response being measured. Consider `COc1ccc(CN(C)C(=O)c2cc3c(Cc4cccc(C)c4)n[nH]c3cc2O)cc1OC`, for which the figures for the IC50 (in test [1]; in the test on A2780) were 580 nM and 3700 nM, respectively.

In the case of `COc1cc2[nH]nc(Cc3cccc(C)c3)c2cc1C(=O)N(C)Cc1ccccc1`, the IC50 in test [1] was greater than 20000 nM. Take `Cc1cccc(Cc2n[nH]c3cc(O)c(C(=O)N(C)Cc4ccccc4Br)cc23)c1`: the IC50 came to 780 nM in test [1] and 310 nM in the test on A2780. The like results for `Cc1cccc(Cc2n[nH]c3cc(O)c(C(=O)N(C)Cc4cccc(F)c4)cc23)c1` were, in that order, 370 nM and 440 nM. On to `Cc1cccc(Cc2n[nH]c3cc(O)c(C(=O)N(C)Cc4ccc(F)cc4)cc23)c1`, for which the results for the concentration for half-maximal inhibition (IC50) (in test [1]; in the test on A2780) were 580 nM and 590 nM, respectively. In the same order, the values of `COc1ccc(CN(C)C(=O)c2cc3c(Cc4cccc(C)c4)n[nH]c3cc2O)cc1` are 460 nM and 540 nM. `Cc1cccc(Cc2n[nH]c3cc(O)c(C(=O)N(C)Cc4ccc(Cl)c(F)c4)cc23)c1`: the half-maximal inhibitory concentration (IC50) in test [1] was 170 nM; in the test on A2780, 930 nM. In the case of `COc1cc(CN(C)C(=O)c2cc3c(Cc4cccc(C)c4)n[nH]c3cc2O)ccc1Cl`, the figures for the IC50 (in test [1]; in the test with A2780) were 680 nM and 1600 nM, respectively. The like results for `Cc1cccc(Cc2n[nH]c3cc(O)c(C(=O)N(C)Cc4ccc(F)c(F)c4)cc23)c1` were, in that order, 500 nM and 530 nM.

As to `Cc1cccc(Cc2n[nH]c3cc(O)c(C(=O)N(C)Cc4cccc(NS(C)(=O)=O)c4)cc23)c1`, the values for the concentration for half-maximal inhibition (IC50) (in test [1]; in the test with A2780) were 200 nM and 4000 nM, respectively. For the molecule `Cc1cccc(Cc2n[nH]c3cc(O)c(C(=O)N(C)Cc4ccc(NS(C)(=O)=O)cc4)cc23)c1`, the half-inhibitory concentration (IC50) is 350 nM in test [1] and 1600 nM in the test with A2780.

As for `Cc1cccc(Cc2n[nH]c3cc(O)c(C(=O)N(C)Cc4ccc(CNS(C)(=O)=O)cc4)cc23)c1`, the half-inhibitory concentration (IC50) with MCF7 was 4700 nM; in the test on COLO 205, 3700 nM; in the test on PC-3 it was greater than 10000 nM; in test [2], 1100 nM; in test [1], 150 nM; in the test on A2780, 710 nM. Consider `CN(Cc1ccc(F)cc1)C(=O)c1cc2c(Cc3ccccc3)n[nH]c2cc1O`, for which the IC50 in test [1] was found to be 1100 nM; with A2780, 4100 nM.

As to `CN(Cc1ccc(Cl)cc1)C(=O)c1cc2c(Cc3ccccc3)n[nH]c2cc1O`, the IC50 worked out at 330 nM in test [1] and 2600 nM in the test with A2780.

Turning to `CN(Cc1ccc(Br)cc1)C(=O)c1cc2c(Cc3ccccc3)n[nH]c2cc1O`, the half-maximal inhibitory concentration (IC50) in test [1] amounted to 1100 nM; with A2780 it was 2800 nM. Regarding `Cc1ccc(CN(C)C(=O)c2cc3c(Cc4ccccc4)n[nH]c3cc2O)cc1`, the IC50 in test [1] worked out at 630 nM; in the test on A2780 it was 6900 nM. As for `CCc1ccc(CN(C)C(=O)c2cc3c(Cc4ccccc4)n[nH]c3cc2O)cc1`, the half-inhibitory concentration (IC50) in test [1] was 390 nM; in the test on A2780, 9400 nM. As for `CCOc1ccc(CN(C)C(=O)c2cc3c(Cc4ccccc4)n[nH]c3cc2O)cc1`, the IC50 in test [1] is 760 nM; in the test on A2780 it was 3200 nM.

For `COc1cccc(CN(C)C(=O)c2cc3c(Cc4ccccc4)n[nH]c3cc2O)c1OC`, the IC50 stood at 470 nM in test [1] and 4800 nM in the test on A2780. Consider `COc1cc(CN(C)C(=O)c2cc3c(Cc4ccccc4)n[nH]c3cc2O)ccc1Cl`, for which the IC50 stood at 2300 nM in test [1] and 4100 nM in the test on A2780. Turning to `CN(Cc1ccc(Cl)c(F)c1)C(=O)c1cc2c(Cc3ccccc3)n[nH]c2cc1O`, the figures for the IC50 (in test [1]; in the test on A2780) were 980 nM and greater than 10000 nM, respectively. With `CN(Cc1ccccc1)C(=O)c1cc2c(Cc3ccccc3Cl)n[nH]c2cc1O`, the half-maximal inhibitory concentration (IC50) in test [1] is 2600 nM. Regarding `Cc1ccccc1Cc1n[nH]c2cc(O)c(C(=O)N(C)Cc3ccccc3)cc12`, the concentration for half-maximal inhibition (IC50) in test [1] was 2400 nM. `CN(Cc1ccccc1)C(=O)c1cc2c(Cc3cccc(F)c3)n[nH]c2cc1O`: the IC50 stood at 1300 nM in test [1] and 1700 nM in the test on A2780. With `CN(Cc1ccccc1)C(=O)c1cc2c(Cc3cccc(Cl)c3)n[nH]c2cc1O`, the results for the IC50 (in test [1]; in the test with A2780) were 400 nM and 410 nM, respectively.

For the molecule `Cc1cccc(Cc2n[nH]c3cc(O)c(C(=O)NCc4ccccc4)cc23)c1`, the IC50 in test [1] was 1500 nM; in the test with A2780, greater than 10000 nM. On to `Cc1cccc(Cc2n[nH]c3cc(O)c(C(=O)N(C)Cc4ccccc4)cc23)c1`, for which the IC50 in the test on A2780 stood at 490 nM. For `CCN(Cc1ccccc1)C(=O)c1cc2c(Cc3cccc(C)c3)n[nH]c2cc1O`, the IC50 in test [1] stood at 3000 nM. Take `COc1cccc(Cc2n[nH]c3cc(O)c(C(=O)N(C)Cc4ccccc4)cc23)c1`: the IC50 in test [1] was determined as 1400 nM.

In the case of `CCc1cccc(Cc2n[nH]c3cc(O)c(C(=O)N(C)Cc4ccccc4)cc23)c1`, the IC50 in test [1] is 1300 nM. In the case of `CN(Cc1ccccc1)C(=O)c1cc2c(Cc3ccc(Cl)cc3)n[nH]c2cc1O`, the half-maximal inhibitory concentration (IC50) in test [1] was 5700 nM.

For the molecule `Cc1ccc(Cc2n[nH]c3cc(O)c(C(=O)N(C)Cc4ccccc4)cc23)cc1`, the IC50 in test [1] was 1300 nM; in the test on A2780 it was greater than 10000 nM. The like results for `CCc1ccc(Cc2n[nH]c3cc(O)c(C(=O)N(C)Cc4ccccc4)cc23)cc1` were, in that order, 2500 nM and greater than 10000 nM. As to `CN(Cc1ccccc1Br)C(=O)c1cc2c(Cc3cccc(Cl)c3)n[nH]c2cc1O`, the concentration for half-maximal inhibition (IC50) in test [1] worked out at 590 nM; with A2780, 130 nM. The like results for `CN(Cc1cccc(F)c1)C(=O)c1cc2c(Cc3cccc(Cl)c3)n[nH]c2cc1O` were, in that order, 710 nM and 440 nM.

For the molecule `CN(Cc1ccc(F)cc1)C(=O)c1cc2c(Cc3cccc(Cl)c3)n[nH]c2cc1O`, the concentration for half-maximal inhibition (IC50) came out at 800 nM in test [1] and 410 nM in the test on A2780. As to `COc1ccc(CN(C)C(=O)c2cc3c(Cc4cccc(Cl)c4)n[nH]c3cc2O)cc1`, the results for the half-maximal inhibitory concentration (IC50) (in test [1]; with A2780) were 800 nM and 390 nM, respectively. As to `COc1ccc(CN(C)C(=O)c2cc3c(Cc4cccc(Cl)c4)n[nH]c3cc2O)cc1OC`, the IC50 in test [1] amounted to 730 nM; in the test on A2780, 2400 nM. On to `CN(Cc1cccc(NS(C)(=O)=O)c1)C(=O)c1cc2c(Cc3cccc(Cl)c3)n[nH]c2cc1O`, for which the half-inhibitory concentration (IC50) in test [1] stood at 410 nM; in the test on A2780, 3200 nM. With `CN(Cc1ccc(CNS(C)(=O)=O)cc1)C(=O)c1cc2c(Cc3cccc(Cl)c3)n[nH]c2cc1O`, the half-inhibitory concentration (IC50) came to 3500 nM with MCF7; 9500 nM in the test with COLO 205; 4300 nM in the test on PC-3; 1000 nM in test [2]; 60 nM in test [1]; 570 nM with A2780. Consider `Oc1ccc2c(C3CCCC3)n[nH]c2c1`, for which the IC50 in test [1] is 87000 nM. Same read-out and setting: the value for `Cc1ccc(-c2nc(N)nc3ccc(Cl)cc23)cc1` was 900 nM. Take `Nc1nc(Cl)cc(Cc2ccc(Cl)cc2)n1`: the IC50 in test [1] worked out at 21000 nM. Turning to `NC(=O)c1cc2c(Cc3ccccc3)n[nH]c2cc1O`, the half-maximal inhibitory concentration (IC50) in test [1] is 61000 nM. With `CCCN(C)C(=O)c1cc2c(Cc3ccccc3)n[nH]c2cc1O`, the IC50 in test [1] was 1900 nM; in the test on A2780 it was greater than 10000 nM. On to `CCCCN(C)C(=O)c1cc2c(Cc3ccccc3)n[nH]c2cc1O`, for which the half-maximal inhibitory concentration (IC50) was 1800 nM in test [1] and 7600 nM in the test on A2780. Consider `COCCN(C)C(=O)c1cc2c(Cc3ccccc3)n[nH]c2cc1O`, for which the IC50 in test [1] was determined as 4000 nM. As to `CN(Cc1ccccc1)C(=O)c1cc2c(Cc3ccccc3)n[nH]c2cc1O`, the IC50 is 660 nM in test [1] and 980 nM in the test with A2780. As for `CN(C(=O)c1cc2c(Cc3ccccc3)n[nH]c2cc1O)c1ccco1`, the values for the IC50 (in test [1]; in the test with A2780) were 610 nM and 2500 nM, respectively. Turning to `CN(Cc1ccccc1)C(=O)c1cc2c(CCc3ccccc3)n[nH]c2cc1O`, the figures for the IC50 (in test [1]; in the test with A2780) were 230 nM and 4600 nM, respectively. In the same order, the values of `CN(Cc1ccccc1F)C(=O)c1cc2c(Cc3ccccc3)n[nH]c2cc1O` are 900 nM and 1500 nM. The like results for `CN(Cc1ccccc1Cl)C(=O)c1cc2c(Cc3ccccc3)n[nH]c2cc1O` were, in that order, 1100 nM and 1100 nM.

For the molecule `CN(Cc1ccccc1Br)C(=O)c1cc2c(Cc3ccccc3)n[nH]c2cc1O`, the half-inhibitory concentration (IC50) in test [1] amounted to 610 nM; in the test on A2780, 1200 nM.

Consider `Cc1ccccc1CN(C)C(=O)c1cc2c(Cc3ccccc3)n[nH]c2cc1O`, for which the IC50 came to 740 nM in test [1] and 4400 nM in the test with A2780.

As for `COc1ccccc1CN(C)C(=O)c1cc2c(Cc3ccccc3)n[nH]c2cc1O`, the concentration for half-maximal inhibition (IC50) is 1700 nM in test [1] and 5400 nM in the test with A2780.

`CN(Cc1cccc(F)c1)C(=O)c1cc2c(Cc3ccccc3)n[nH]c2cc1O`: the values for the 50% inhibitory concentration (IC50) (in test [1]; in the test with A2780) were 570 nM and 5000 nM, respectively. Regarding `CN(Cc1cccc(Cl)c1)C(=O)c1cc2c(Cc3ccccc3)n[nH]c2cc1O`, the half-inhibitory concentration (IC50) in test [1] amounted to 1500 nM; in the test on A2780, 5300 nM. In the same order, the values of `CN(Cc1cccc(Br)c1)C(=O)c1cc2c(Cc3ccccc3)n[nH]c2cc1O` are 1300 nM and 7100 nM. With `Cc1cccc(CN(C)C(=O)c2cc3c(Cc4ccccc4)n[nH]c3cc2O)c1`, the 50% inhibitory concentration (IC50) in test [1] came out at 3600 nM.

Turning to `COc1cccc(CN(C)C(=O)c2cc3c(Cc4ccccc4)n[nH]c3cc2O)c1`, the results for the IC50 (in test [1]; in the test with A2780) were 980 nM and 3800 nM, respectively. In the case of `CN(Cc1cccc(C(F)(F)F)c1)C(=O)c1cc2c(Cc3ccccc3)n[nH]c2cc1O`, in test [1], the half-maximal inhibitory concentration (IC50) was 3400 nM.
